Here are results for ten compounds from PubChem BioAssay (NCI).

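Results reflect a 48-hour exposure of cells in 96-well plates to compound at five concentrations. Abbreviation: GI50, concentration required for 50% inhibition of growth. TGI: concentration producing complete growth inhibition.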 Some results are limits rather than exact numbers.

Holding throughout (assay): NCI anticancer screen, dose series, 48 h
The test system of experiment [1] is SK-OV-3 ovarian.
For experiment [2], the system named is SF-539 CNS.
The subject of experiment [3] is NCI-H23 lung.
Experiment [4] has as its system HOP-92 NSCLC.
For experiment [5], the system named is UO-31 renal.
For experiment [6], the system named is SNB-75 CNS.
In experiment [7] the test system is HS 578T breast.
The test system of experiment [8] is CAKI-1 renal.
Experiment [9] relates to COLO 205 colon.
In experiment [10] the test system is HL-60(TB) leukemia.

With `Cc1nc2ccc(Nc3nc(Cl)nc(N4CCOCC4)n3)cc2n1Cc1ccccc1`, the GI50 in [1] is 3.66 µM; in experiment [2] it was 14.2 µM; in experiment [3] it was 1.94 µM; in experiment [4], 2.07 µM; in experiment [5], 8.89 µM; in experiment [6], 4.47 µM. The GI50 was 4.67 µM in [7] and 20.2 µM in experiment [8]. The TGI was over 100 µM in experiment [1]; 47.6 µM in experiment [2]; 3.92 µM in [3]; 6.36 µM in [4]; over 100 µM in experiment [5]; 29.6 µM in experiment [6]. Also, the TGI in experiment [7] and in experiment [8] was over 100 µM in each case.

`COc1ccc(NC(=O)C(=O)c2c(O)c3ccc(O)cc3oc2=O)c([N+](=O)[O-])c1`: the TGI in experiment [9], in [1], in [2], in [3], in experiment [10] and in experiment [4] was over 100 µM in each case. Further, the TGI in experiment [5], in [6] and in experiment [8] was over 100 µM each time.

On to `CN1c2ccccc2N(C(=O)c2ccc([N+](=O)[O-])cc2)C(CC(=O)O)c2cccn21` (stereo not given), for which the TGI in experiment [9], in experiment [1], in experiment [2], in experiment [3], in experiment [10] and in experiment [4] was over 100 µM in each case. The TGI in experiment [5], in experiment [6] and in experiment [8] was over 100 µM in each case.

`CN(CCN1C(=O)c2cc([N+](=O)[O-])cc3cc([N+](=O)[O-])cc(c23)C1=O)CCN1C(=O)c2cc([N+](=O)[O-])cc3cc([N+](=O)[O-])cc(c23)C1=O`: the TGI is 14 µM in experiment [9]; over 71.5 µM in experiment [1]; over 58.8 µM in experiment [2]; 27.9 µM in experiment [3]; 0.536 µM in experiment [10]; 2.2 µM in experiment [4]. Moreover, the TGI in experiment [5] is over 20.8 µM; in [6], over 100 µM; in experiment [8], 0.618 µM.

Take `COc1cc(Nc2nc3cc(N)cc(N)c3nc2-c2ccccc2)cc(OC)c1OC`: the GI50 in experiment [9] is 14 µM; in experiment [1], 23 µM; in [2], 14.8 µM; in [3], 24.9 µM; in experiment [10], 6.65 µM; in [4], 2.73 µM. For the same compound, the GI50 in experiment [5] is 15.1 µM; in [7], 15 µM; in experiment [8], 15.5 µM. Moreover, the TGI in [9] amounted to 27.1 µM; in experiment [1], 57.8 µM; in [2], 28.9 µM; in [3], 76.7 µM; in experiment [10] it was 23.3 µM; in experiment [4], 21 µM. For the same compound, the TGI in experiment [5] was found to be 90.3 µM; in [7] it was 78.1 µM; in [8], 48.5 µM.

Turning to `CC(C)(O)[C@@H]1CC[C@@]2(C)CCCC(O)C2(O)C1` (stereo not given in full), the TGI in experiment [9], in [1], in experiment [2], in experiment [3], in experiment [10] and in experiment [4] was over 100 µM throughout. Besides, the TGI in experiment [5], in [6] and in experiment [8] was over 100 µM in each case.

Consider `Cc1cc(O)c(=O)cc2c1C[C@H]1CC(C)(C)/C=C/C[C@]3(C)Oc4cc(=O)c(O)cc(C)c4C[C@H]3C[C@H](O)[C@@]1(C)O2`, for which the GI50 in experiment [1] is 0.0181 µM; in [2], 0.0332 µM; in [3], under 0.01 µM; in experiment [10] it was 0.0249 µM; in experiment [5], 0.0213 µM; in [6], 0.0262 µM. The results for the GI50 in experiment [7] and in experiment [8] were 0.0339 µM and 0.0225 µM, respectively. Besides, the TGI in [1] stood at 0.412 µM; in [2] it was 58.6 µM; in experiment [3], 0.0345 µM; in [10], 0.102 µM; in experiment [5], 0.198 µM; in [6] it was 42 µM. Besides, the TGI in [7] is over 100 µM.

`COc1ccc(C(c2cc(OC)c(OC)c(OC)c2)n2ccnc2)cc1O` (stereo not given): the GI50 is 0.361 µM in experiment [9]; 0.465 µM in experiment [1]; 0.217 µM in [2]; 0.882 µM in experiment [3]; 0.229 µM in experiment [10]; 28.6 µM in experiment [4]. In addition, the values for the GI50 in experiment [5], in experiment [7] and in experiment [8] were 0.883 µM, 0.414 µM and 0.68 µM, respectively. The TGI is 1.77 µM in experiment [9]; over 100 µM in experiment [1]; 0.552 µM in experiment [2]; over 100 µM in [3]; 0.628 µM in experiment [10]; over 100 µM in [4]. Besides, the TGI in experiment [5], in experiment [7] and in experiment [8] was over 100 µM in each case.

Turning to `COc1cc(C2Cc3ncccc3-c3[nH]c(=O)c4cccnc4c32)cc(OC)c1OC` (stereo not given), the GI50 in experiment [9] was 0.332 µM; in experiment [1] it was 0.376 µM; in [2] it was 0.269 µM; in [3], 0.999 µM; in [10], 0.251 µM; in [5], 0.819 µM. For the same compound, the GI50 is 0.255 µM in experiment [6], 0.613 µM in [7] and 1.58 µM in experiment [8]. The TGI in experiment [9] was 1.27 µM; in experiment [1] it was over 100 µM; in [2], 1.55 µM; in experiment [3] it was over 100 µM; in experiment [10], 2.95 µM; in experiment [5], over 100 µM. Moreover, the TGI in experiment [6], in experiment [7] and in experiment [8] was over 100 µM each time.

In the case of `N#CCCN(c1ccc(C=Nc2ccccc2)cc1)S(=O)(=O)c1ccccc1`, the TGI in experiment [9], in [1], in experiment [2], in experiment [3], in experiment [10] and in experiment [4] was over 100 µM throughout. In addition, the TGI in experiment [5], in experiment [6] and in experiment [8] was over 100 µM in each case.
